Experimental data reported in ChEMBL document CHEMBL1153914, “Synthesis, binding affinity and SAR of new benzolactam derivatives as dopamine D3 receptor ligands” (Bioorg Med Chem Lett, 2009).

target: T1, D(1A) dopamine receptor (Homo sapiens, UniProt P21728); assay: Displacement of [3H]SCH23390 from human dopamine D1 receptor at 10 uM; conditions: not given
T1 sequence (P21728 whole entry): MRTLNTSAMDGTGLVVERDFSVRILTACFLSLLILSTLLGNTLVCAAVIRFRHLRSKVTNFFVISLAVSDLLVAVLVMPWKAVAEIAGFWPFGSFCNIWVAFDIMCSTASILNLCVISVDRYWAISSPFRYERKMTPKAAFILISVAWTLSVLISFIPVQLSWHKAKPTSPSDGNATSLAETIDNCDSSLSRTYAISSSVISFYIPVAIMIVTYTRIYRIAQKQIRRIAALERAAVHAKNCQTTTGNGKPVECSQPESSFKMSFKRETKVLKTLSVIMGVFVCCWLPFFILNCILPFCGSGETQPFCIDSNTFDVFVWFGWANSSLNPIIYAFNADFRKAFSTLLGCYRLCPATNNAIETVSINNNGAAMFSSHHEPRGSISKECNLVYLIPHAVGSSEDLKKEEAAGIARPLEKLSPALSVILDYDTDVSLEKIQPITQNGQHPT

Going from `COc1ccc(N2CCN(CCCN3CCc4ccccc4C3=O)CC2)cc1` to `COc1ccc(N2CCN(CCCCN3CCc4ccccc4C3=O)CC2)cc1`, the Activity falls from 43.5% to 34.2%.

Going from `COc1ccccc1N1CCN(CCCCN2CCc3ccccc3C2=O)CC1` to `COc1ccccc1N1CCN(CCCN2CCc3ccccc3C2=O)CC1`, the Activity falls from 61.1% to 59.5%.

Going from `COc1ccc(N2CCN(CCCN3CCCCc4ccccc4C3=O)CC2)cc1` to `COc1ccc(N2CCN(CCCN3CCCc4ccccc4C3=O)CC2)cc1`, the Activity falls from 58.9% to 42.8%.

Compared with `O=C1c2ccccc2CCCN1CCCN1CCN(c2ccccn2)CC1`, `O=C1c2ccccc2CCCN1CCCN1CCN(c2ncccn2)CC1` is lower in Activity: 57% for the first, 46% for the second.

Going from `O=C1c2ccccc2CCN1CCCN1CCN(c2ncccn2)CC1` to `O=C1c2ccccc2CCN1CCCCN1CCN(c2ncccn2)CC1`, the Activity falls from 40.8% to 31.6%.

`COc1ccc(N2CCN(CCCCN3CCCc4ccccc4C3=O)CC2)cc1` gave an Activity of 47.5%.

target: T1, D(1A) dopamine receptor; assay: Displacement of [3H]SCH23390 from human dopamine D1 receptor; conditions: not given

Going from `O=C1c2ccccc2CCN1CCCCN1CCN(c2ccccc2Cl)CC1` to `O=C1c2ccccc2CCN1CCCCN1CCN(c2cccc(Cl)c2Cl)CC1`, the Ki rises from 347 nM to 1780 nM (5.1-fold).

Compared with `O=C1c2ccccc2CCCN1CCCCN1CCN(c2ncccn2)CC1`, `O=C1c2ccccc2CCCN1CCCCN1CCN(c2ccccn2)CC1` is 31-fold lower in Ki: 8710 nM for the first, 282 nM for the second. The second binds more tightly here.

`O=C1c2ccccc2CCN1CCCN1CCN(c2ccccn2)CC1` and `O=C1c2ccccc2CCN1CCCCN1CCN(c2ccccn2)CC1` are within 1.5-fold of each other in Ki: 1700 nM for the first, 2040 nM for the second.

`COc1ccccc1N1CCN(CCCCN2CCCc3ccccc3C2=O)CC1` and `COc1ccccc1N1CCN(CCCN2CCCc3ccccc3C2=O)CC1` are within 1.5-fold of each other in Ki: 2690 nM for the first, 2510 nM for the second.

`O=C1c2ccccc2CCCN1CCCCN1CCN(c2cccc(Cl)c2Cl)CC1` and `O=C1c2ccccc2CCCN1CCCN1CCN(c2cccc(Cl)c2Cl)CC1` are within 1.5-fold of each other in Ki: 1740 nM for the first, 2400 nM for the second.

Compared with `COc1cccc(N2CCN(CCCCN3CCc4ccccc4C3=O)CC2)c1`, `COc1ccccc1N1CCN(CCCCCN2CCc3ccccc3C2=O)CC1` is 2.3-fold higher in Ki: 427 nM for the first, 977 nM for the second.

First: O=C1c2ccccc2CCCN1CCCN1CCN(c2cccc(C(F)(F)F)c2)CC1
Second: O=C1c2ccccc2CCN1CCCN1CCN(c2cccc(C(F)(F)F)c2)CC1
The Ki of the first is 2.8-fold higher: 4900 nM for the first, 1740 nM for the second. The second binds more tightly here.

With `O=C1c2ccccc2CCN1CCCN1CCN(c2cccc(Cl)c2Cl)CC1` the Ki was 1450 nM.

test system: not listed separately; assay: Selectivity for dopamine D3 receptor over dopamine D2 receptor; conditions: not given

`O=C(NCCCCN1CCN(c2cccc(Cl)c2Cl)CC1)c1cc2ccccc2s1` gave a Selectivity ratio of 7200.

target: T2, D(2) dopamine receptor (Homo sapiens, UniProt P14416); assay: Displacement of [3H]spiperone from human dopamine D2 receptor; conditions: not given
T2 sequence (P14416 whole entry): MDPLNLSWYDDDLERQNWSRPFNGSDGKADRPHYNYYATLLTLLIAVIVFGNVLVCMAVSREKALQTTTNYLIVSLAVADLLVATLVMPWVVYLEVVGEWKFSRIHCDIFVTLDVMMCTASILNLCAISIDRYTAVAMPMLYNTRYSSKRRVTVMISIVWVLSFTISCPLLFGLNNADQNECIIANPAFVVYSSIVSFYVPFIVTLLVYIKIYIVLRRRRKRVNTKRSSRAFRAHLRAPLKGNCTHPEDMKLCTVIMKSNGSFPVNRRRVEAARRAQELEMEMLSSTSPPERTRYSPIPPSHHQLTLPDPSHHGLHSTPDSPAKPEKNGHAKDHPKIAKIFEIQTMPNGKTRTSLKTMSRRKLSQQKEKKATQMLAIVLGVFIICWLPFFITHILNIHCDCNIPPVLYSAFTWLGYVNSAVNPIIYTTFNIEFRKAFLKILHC

Going from `O=C1c2ccccc2CCN1CCCCN1CCN(c2ccccc2Cl)CC1` to `O=C1c2ccccc2CCN1CCCCN1CCN(c2cccc(Cl)c2Cl)CC1`, the Ki falls from 35.5 nM to 11.5 nM (3.1-fold). The second binds more tightly here.

Going from `COc1ccccc1N1CCN(CCCCN2CCc3ccccc3C2=O)CC1` to `COc1ccccc1N1CCN(CCCCCN2CCc3ccccc3C2=O)CC1`, the Ki rises from 12.3 nM to 20.4 nM (1.7-fold). The first binds more tightly here.

Going from `O=C1c2ccccc2CCCN1CCCCN1CCN(c2ncccn2)CC1` to `O=C1c2ccccc2CCCN1CCCCN1CCN(c2ccccn2)CC1`, the Ki rises from 151 nM to 229 nM (1.5-fold). The first binds more tightly here.

Compared with `COc1ccccc1N1CCN(CCCCN2CCCc3ccccc3C2=O)CC1`, `COc1ccccc1N1CCN(CCCN2CCCc3ccccc3C2=O)CC1` is 220-fold higher in Ki: 3.63 nM for the first, 794 nM for the second. The first binds more tightly here.

Going from `O=C1c2ccccc2CCCN1CCCCN1CCN(c2cccc(Cl)c2Cl)CC1` to `O=C1c2ccccc2CCCN1CCCN1CCN(c2cccc(Cl)c2Cl)CC1`, the Ki rises from 36.3 nM to 219 nM (6-fold). The first binds more tightly here.

First: COc1ccc(N2CCN(CCCN3CCCc4ccccc4C3=O)CC2)cc1
Second: COc1cccc(N2CCN(CCCCN3CCc4ccccc4C3=O)CC2)c1
The Ki of the first is higher: > 100000 nM for the first, 158 nM for the second.

target: T2, D(2) dopamine receptor; assay: Displacement of [3H]spiperone from human dopamine D2 receptor at 10 uM; conditions: not given

Going from `COc1ccc(N2CCN(CCCN3CCc4ccccc4C3=O)CC2)cc1` to `COc1ccc(N2CCN(CCCCN3CCc4ccccc4C3=O)CC2)cc1`, the Activity rises from 1.35% to 33.2%.

Going from `COc1ccc(N2CCN(CCCN3CCCCc4ccccc4C3=O)CC2)cc1` to `COc1ccc(N2CCN(CCCN3CCCc4ccccc4C3=O)CC2)cc1`, the Activity falls from 13.1% to 1.1%.

Going from `O=C1c2ccccc2CCCN1CCCN1CCN(c2ccccn2)CC1` to `O=C1c2ccccc2CCN1CCCN1CCN(c2ccccn2)CC1`, the Activity falls from 26.3% to 12.4%.

Compared with `COc1ccccc1N1CCN(CCCN2CCc3ccccc3C2=O)CC1`, `O=C1c2ccccc2CCN1CCCN1CCN(c2cccc(Cl)c2Cl)CC1` is higher in Activity: 50.4% for the first, 59.9% for the second.

First: O=C1c2ccccc2CCN1CCCN1CCN(c2ncccn2)CC1
Second: O=C1c2ccccc2CCN1CCCCN1CCN(c2ncccn2)CC1
The Activity of the first is lower: 0.36% for the first, 60.5% for the second.

First: O=C1c2ccccc2CCN1CCCCN1CCN(c2ccccn2)CC1
Second: O=C1c2ccccc2CCCN1CCCN1CCN(c2ncccn2)CC1
The Activity of the first is higher: 57.5% for the first, 36.4% for the second.

Going from `O=C1c2ccccc2CCCN1CCCN1CCN(c2cccc(C(F)(F)F)c2)CC1` to `O=C1c2ccccc2CCN1CCCN1CCN(c2cccc(C(F)(F)F)c2)CC1`, the Activity falls from 55.5% to 52.4%.

In the case of `COc1ccc(N2CCN(CCCCN3CCCc4ccccc4C3=O)CC2)cc1`, the Activity is reported as 59%.

target: D(3) dopamine receptor (Homo sapiens, UniProt P35462); assay: Displacement of [3H]spiperone from human dopamine D3 receptor; conditions: read-out: Ki
Sequence (P35462 whole entry): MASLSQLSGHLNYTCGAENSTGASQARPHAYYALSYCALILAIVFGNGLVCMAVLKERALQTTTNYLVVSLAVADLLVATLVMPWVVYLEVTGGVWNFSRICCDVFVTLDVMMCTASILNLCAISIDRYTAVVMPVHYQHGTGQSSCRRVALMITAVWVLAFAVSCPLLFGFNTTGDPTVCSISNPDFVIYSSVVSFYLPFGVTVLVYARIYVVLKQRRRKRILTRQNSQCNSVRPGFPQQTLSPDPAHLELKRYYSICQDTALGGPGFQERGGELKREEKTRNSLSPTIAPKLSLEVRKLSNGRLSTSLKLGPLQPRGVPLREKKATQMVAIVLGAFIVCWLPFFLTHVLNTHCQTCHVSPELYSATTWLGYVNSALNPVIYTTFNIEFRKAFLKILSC

`COc1ccc(N2CCN(CCCCN3CCCc4ccccc4C3=O)CC2)cc1` gave a Ki of 40 nM.

same assay, conditions: read-out: pKi (converted)

First: COc1ccc(N2CCN(CCCN3CCc4ccccc4C3=O)CC2)cc1
Second: COc1ccc(N2CCN(CCCCN3CCc4ccccc4C3=O)CC2)cc1
The Ki of the first is 20-fold higher: 10000 nM for the first, 490 nM for the second.

Going from `O=C1c2ccccc2CCN1CCCCN1CCN(c2ccccc2Cl)CC1` to `O=C1c2ccccc2CCN1CCCCN1CCN(c2cccc(Cl)c2Cl)CC1`, the Ki rises from 6.76 nM to 162 nM (24-fold).

Compared with `O=C1c2ccccc2CCCN1CCCCN1CCN(c2ncccn2)CC1`, `O=C1c2ccccc2CCCN1CCCN1CCN(c2ncccn2)CC1` is 13-fold higher in Ki: 631 nM for the first, 8320 nM for the second.

Going from `COc1ccc(N2CCN(CCCN3CCCCc4ccccc4C3=O)CC2)cc1` to `COc1ccc(N2CCN(CCCN3CCCc4ccccc4C3=O)CC2)cc1`, the Ki falls from 8910 nM to 1100 nM (8.1-fold).

Going from `O=C1c2ccccc2CCCN1CCCN1CCN(c2ccccn2)CC1` to `O=C1c2ccccc2CCCN1CCCCN1CCN(c2ccccn2)CC1`, the Ki falls from 4170 nM to 398 nM (10-fold).

First: O=C1c2ccccc2CCN1CCCN1CCN(c2ccccn2)CC1
Second: O=C1c2ccccc2CCN1CCCN1CCN(c2ncccn2)CC1
The Ki of the first is 2.9-fold lower: 8320 nM for the first, 24500 nM for the second.

Compared with `COc1ccccc1N1CCN(CCCCN2CCCc3ccccc3C2=O)CC1`, `COc1ccccc1N1CCN(CCCN2CCCc3ccccc3C2=O)CC1` is 130-fold higher in Ki: 1.58 nM for the first, 209 nM for the second.

First: COc1ccccc1N1CCN(CCCN2CCc3ccccc3C2=O)CC1
Second: COc1ccccc1N1CCN(CCCCCN2CCc3ccccc3C2=O)CC1
The Ki of the first is 49-fold higher: 1580 nM for the first, 32.4 nM for the second.

First: O=C1c2ccccc2CCCN1CCCCN1CCN(c2cccc(Cl)c2Cl)CC1
Second: O=C1c2ccccc2CCCN1CCCN1CCN(c2cccc(Cl)c2Cl)CC1
The Ki of the first is 27-fold lower: 14.5 nM for the first, 389 nM for the second.

First: O=C1c2ccccc2CCN1CCCCN1CCN(c2ncccn2)CC1
Second: COc1cccc(N2CCN(CCCCN3CCc4ccccc4C3=O)CC2)c1
The Ki of the first is 37-fold higher: 1510 nM for the first, 40.7 nM for the second.

Going from `O=C1c2ccccc2CCCN1CCCN1CCN(c2cccc(C(F)(F)F)c2)CC1` to `O=C1c2ccccc2CCN1CCCN1CCN(c2cccc(C(F)(F)F)c2)CC1`, the Ki rises from 1050 nM to 2400 nM (2.3-fold).

For `O=C1c2ccccc2CCN1CCCN1CCN(c2cccc(Cl)c2Cl)CC1`, the Ki was 209 nM.

target: 5-hydroxytryptamine receptor 2A (Homo sapiens, UniProt P28223); assay: Displacement of [3H]ketanserin from 5HT2A receptor; conditions: not given
Sequence (P28223 whole entry): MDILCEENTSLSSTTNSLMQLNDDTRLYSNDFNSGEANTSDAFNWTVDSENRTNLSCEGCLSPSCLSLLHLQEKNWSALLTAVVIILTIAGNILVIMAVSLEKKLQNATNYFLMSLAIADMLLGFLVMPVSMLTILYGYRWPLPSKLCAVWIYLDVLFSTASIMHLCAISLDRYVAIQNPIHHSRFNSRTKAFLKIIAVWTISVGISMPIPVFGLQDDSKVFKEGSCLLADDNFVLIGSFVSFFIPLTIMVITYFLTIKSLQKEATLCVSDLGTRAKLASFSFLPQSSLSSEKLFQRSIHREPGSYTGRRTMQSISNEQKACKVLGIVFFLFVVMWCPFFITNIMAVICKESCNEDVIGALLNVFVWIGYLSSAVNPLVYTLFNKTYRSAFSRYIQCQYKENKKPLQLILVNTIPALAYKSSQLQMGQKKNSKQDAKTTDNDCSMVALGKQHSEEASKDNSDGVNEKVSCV

`O=C1c2ccccc2CCCN1CCCCN1CCN(c2cccc(Cl)c2Cl)CC1` gave a Ki of 10 nM.

organism: Homo sapiens; assay: Selectivity ratio of Ki for human dopamine D2 receptor to Ki for human dopamine D3 receptor; conditions: not given

Going from `O=C1c2ccccc2CCN1CCCCN1CCN(c2ccccc2Cl)CC1` to `O=C1c2ccccc2CCCN1CCCCN1CCN(c2cccc(Cl)c2Cl)CC1`, the Ratio Ki falls from 5.2 to 2.5.

Work on `COc1ccccc1N1CCN(CCCCN2CCCc3ccccc3C2=O)CC1` yielded a Ratio Ki of 2.2.
